Laboratory results reported in patent US7767463B2, “Method for screening mobile phases in chromatography systems” (Cohesive Technologies, Inc., priority 2007, dated 2010).

Assay type: physicochemical
Source text: The method provided herein provides for a technique to more reliably screen and select an appropriate eluent protocol. In an exemplary embodiment, reference is therefore made to FIG. 2. A given solvent or solvent combination may be prepared 210. Then a desired sample, alone or premixed with the same or another solvent, may be combined with the given solvent forming a mobile phase 220. The mobile phase may then be passed through a membrane 230. As discussed more fully below, the membrane may be representative of a particular chromatographic column with respect to variables such as pore diameter. The pressure of the mobile phase as it passes through the membrane may then be measured by pressure detectors on one or both sides of the membrane 240. The pressure differential between mobile phases containing the desired sample and various solvents may be assessed at 250. […]
The pressure developed prior to the membrane as the mobile phase passes through the membrane may be, as discussed above, indicative of the dissolution between the sample and the solvent. […] In addition, by comparing the pressure developed prior to the membrane of a given mobile phase P1 with a sample to a similar sample in other and different solvents, relative solubility may again be determined. […]

pressure differential: 25 bar
Compound: c1ccc2ccccc2c1 [naphthalene]
